From patent publication US20250145585A1, “HETEROCYCLIC INHIBITORS OF IGF-1R FOR TREATMENT OF DISEASE” (HORIZON THERAPEUTICS IRELAND DAC, priority 2023, published 2025)
pIC50: −log10 of the molar value. One block for each compound: values may come before it.

Assays:
[1] = molecular target: T1, IGF-1R (Homo sapiens, UniProt P08069); assay: Example B-1: IGF-1R Assay (PC3 cells stimulated with IGF1, AlphaLISA on cell lysates); format: cell-based; conditions: compound two hours, IGF1 200 ng/mL for 30 min, read-out: IC50, Biological Activity against IGF-1R (Table B1)
T1 construct: expressed in transfected cells
T1 sequence (P08069 31-1367): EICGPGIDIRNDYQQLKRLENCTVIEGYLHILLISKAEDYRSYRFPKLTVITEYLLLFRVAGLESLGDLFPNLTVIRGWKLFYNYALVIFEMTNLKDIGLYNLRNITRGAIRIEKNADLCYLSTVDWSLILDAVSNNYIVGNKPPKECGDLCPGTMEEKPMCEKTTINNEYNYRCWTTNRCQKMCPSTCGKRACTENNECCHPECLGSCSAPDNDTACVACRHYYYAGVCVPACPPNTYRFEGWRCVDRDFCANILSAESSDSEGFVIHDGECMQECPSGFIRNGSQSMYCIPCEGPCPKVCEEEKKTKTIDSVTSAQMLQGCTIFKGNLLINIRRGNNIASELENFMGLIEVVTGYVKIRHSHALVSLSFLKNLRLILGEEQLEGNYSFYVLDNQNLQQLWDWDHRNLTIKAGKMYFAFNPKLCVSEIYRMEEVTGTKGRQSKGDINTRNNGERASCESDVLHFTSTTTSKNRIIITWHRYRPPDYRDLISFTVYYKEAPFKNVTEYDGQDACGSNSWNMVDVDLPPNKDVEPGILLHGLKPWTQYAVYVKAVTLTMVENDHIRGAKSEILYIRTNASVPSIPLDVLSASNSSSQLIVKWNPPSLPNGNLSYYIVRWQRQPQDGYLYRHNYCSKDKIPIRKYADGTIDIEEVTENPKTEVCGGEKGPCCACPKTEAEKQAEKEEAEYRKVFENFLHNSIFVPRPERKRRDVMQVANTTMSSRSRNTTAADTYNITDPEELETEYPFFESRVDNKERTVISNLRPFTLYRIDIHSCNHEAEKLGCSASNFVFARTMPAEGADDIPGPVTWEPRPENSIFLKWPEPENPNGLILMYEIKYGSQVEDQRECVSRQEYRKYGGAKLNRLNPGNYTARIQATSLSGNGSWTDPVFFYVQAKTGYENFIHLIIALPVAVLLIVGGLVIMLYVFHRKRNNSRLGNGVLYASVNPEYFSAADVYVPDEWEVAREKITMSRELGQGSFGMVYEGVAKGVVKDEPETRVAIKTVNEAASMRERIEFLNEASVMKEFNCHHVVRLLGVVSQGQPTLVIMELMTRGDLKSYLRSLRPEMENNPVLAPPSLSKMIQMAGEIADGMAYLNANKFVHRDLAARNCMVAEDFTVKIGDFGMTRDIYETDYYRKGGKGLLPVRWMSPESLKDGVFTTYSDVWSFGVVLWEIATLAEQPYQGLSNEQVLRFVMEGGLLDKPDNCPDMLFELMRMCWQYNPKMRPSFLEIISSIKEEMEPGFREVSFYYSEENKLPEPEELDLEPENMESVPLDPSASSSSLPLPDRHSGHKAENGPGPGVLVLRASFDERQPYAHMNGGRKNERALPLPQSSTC
Protocol: 50K PC3 cells were seeded on day 1 in 50 μL of media in 96-well plate and incubated overnight at 37° C., 5% CO2. On day 2, all cells were expected to be at 80-90% confluency. Cells were starved for two hours by changing the media to 90 μL of EMEM serum-free media and incubated for 2 hours. Next, cells were treated with 10 μL of 10× concentrated and 3× serially diluted compounds for two hours. It makes 1× of compounds in 100 μL media. This was followed by stimulation of cells with 11×IGF1 for 30 min in 10 μL of serum-free EMEM media at the final concentration of 200 ng/mL.
The media was removed and replaced by 50 μL of 1× lysis buffer from the AlphaLISA kit (with 1× of cOmplete™ protease inhibitor). The plates were sealed, and cells were allowed to lyse for 10 min in the shaker before storing the plate at −20° C. until used. The AlphaLISA assay with processed cell lysates were performed as described in the protocol. Briefly, 10 μL of the undiluted sample were loaded to 384 well Optiplates and 5 μL of the acceptor mix (as described in the AlphaLISA kit) was added to each well. The plates were sealed and briefly vortexed followed by the incubation at RT for 3 hours. In the dark, 5 μL of donor mix was added to each well. All plates were sealed and stored at RT overnight. The plates were read in EnVision reader using standard AlphaLISA settings.
Compound activity was analyzed using CBIS data analysis suite (Cheminnovation, CA). Percentage inhibition was calculated using the following formula: % I-hibition=100%×(1−(mea−RLU of test sample−mean RLU of vehicle control)/(mean-RLU of EC80 control−mean RLU of vehicle control)). The activity for representative examples of the invention is shown in the following table, wherein A: IC50≤500 nM; B: 500 nM<IC50≤2 μM; C: 2 μM<IC50≤10 μM; D: IC50>10 μM.

[2] = molecular target: T1, IGF-1R; assay: Example B-2: IGF-1R Assay (PathHunter cell lines, EC80 agonist challenge, chemiluminescent detection); format: cell-based; conditions: PathHunter cells, compound 60 minutes at 37° C., EC80 agonist 3 hours; read-out: IC50, Biological Activity against IGF-1R (Table B2)
Outline: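 PathHunter cells were pre-incubated with compound for 60 min at 37° C (1% vehicle), then challenged with EC80 agonist for 3 h at room temperature. Chemiluminescent detection after 1 h gave % inhibition relative to EC80 and vehicle controls, from which IC50 was derived.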

Compound: 5,5-dimethyl-1-((2-((2-methyl- 3-oxoisoindolin-5- yl)amino)pyridin-4-yl)methyl)- 3-(4- ((trifluoromethyl)thio)phenyl) amidazolidine-2,4-dione [Compound 272]
- pIC50 [1]: ≥ 6.30

Compound: CC1(C)C(=O)N(c2ccc(SC(F)(F)F)cc2)C(=O)N1Cc1ccnc2[nH]cnc12 [Compound 2, 1-((3H-imidazo[4,5-b]pyridin-7-yl)methyl)-5,5-dimethyl-3-(4-((trifluoromethyl)thio)phenyl)imidazolidine-2,4-dione]
- pIC50 [1]: ≥ 6.30

Compound: CC1(C)C(=O)N(c2ccc(SC(F)(F)F)cc2)C(=O)N1Cc1ncnc2[nH]ccc12 [Compound 3, 1-((7H-pyrrolo[2,3-d]pyrimidin-4-yl)methyl)-5,5-dimethyl-3-(4-((trifluoromethyl)thio)phenyl)imidazolidine-2,4-dione]
- pIC50 [1]: ≥ 6.30

Compound: CC(C)(C)c1ccc(N2C(=O)N(Cc3ccnc4[nH]ccc34)C(C)(C)C2=O)cc1 [Compound 4]
- pIC50 [1]: ≥ 6.30

Compound: CC1(C)C(=O)N(c2ccc(SC(F)(F)F)cc2)C(=O)N1Cc1ccnc2[nH]cc(Cl)c12 [Compound 5, 1-((3-chloro-1H-pyrrolo[2,3-b]pyridin-4-yl)methyl)-5,5-dimethyl-3-(4-((trifluoromethyl)thio)phenyl)imidazolidine-2,4-dione]
- pIC50 [1]: ≥ 6.30

Compound: CC(C)(C)c1ccc(N2C(=O)N(Cc3ccnc4[nH]cc(Cl)c34)C(C)(C)C2=O)cc1 [Compound 6, 3-(4-(tert-butyl)phenyl)-1-((3-chloro-1H-pyrrolo[2,3-b]pyridin-4-yl)methyl)-5,5-dimethylimidazolidine-2,4-dione]
- pIC50 [1]: ≥ 6.30

Compound: CC1(C)C(=O)N(c2ccc(C3(C(F)(F)F)CC3)cc2)C(=O)N1Cc1ccnc2[nH]ccc12 [Compound 7, 1-((1H-pyrrolo[2,3-b]pyridin-4-yl)methyl)-5,5-dimethyl-3-(4-(1-(trifluoromethyl)cyclopropyl)phenyl)imidazolidine-2,4-dione]
- pIC50 [1]: ≥ 6.30

Compound: CC1(C)C(=O)N(c2ccc(C3(C(F)(F)F)CC3)cc2)C(=O)N1Cc1ccnc2[nH]cc(Br)c12 [Compound 8, 1-((3-bromo-1H-pyrrolo[2,3-b]pyridin-4-yl)methyl)-5,5-dimethyl-3-(4-(1-(trifluoromethyl)cyclopropyl)phenyl)imidazolidine-2,4-dione]
- pIC50 [1]: ≥ 6.30

Compound: Cc1cc2c(CN3C(=O)N(c4ccc(C5(C(F)(F)F)CC5)cc4)C(=O)C3(C)C)ccnc2[nH]1 [Compound 9, 5,5-dimethyl-1-((2-methyl-1H-pyrrolo[2,3-b]pyridin-4-yl)methyl)-3-(4-(1-(trifluoromethyl)cyclopropyl)phenyl) imidazolidine-2,4-dione]
- pIC50 [1]: ≥ 6.30

Compound: Cc1[nH]c2nccc(CN3C(=O)N(c4ccc(C5(C(F)(F)F)CC5)cc4)C(=O)C3(C)C)c2c1Cl [Compound 10, 1-((3-chloro-2-methyl-1H-pyrrolo[2,3-b]pyridin-4-yl)methyl)-5,5-dimethyl-3-(4-(1-(trifluoromethyl)cyclopropyl)phenyl) imidazolidine-2,4-dione]
- pIC50 [1]: ≥ 6.30

Compound: CC1(C)C(=O)N(c2ccc(C3(C(F)(F)F)CC3)cc2)C(=O)N1Cc1ccnc2[nH]c(-c3ccccc3)cc12 [Compound 11, 5,5-dimethyl-1-((2-phenyl-1H-pyrrolo[2,3-b]pyridin-4-yl)methyl)-3-(4-(1-(trifluoromethyl)cyclopropyl)phenyl) imidazolidine-2,4-dione]
- pIC50 [1]: ≥ 6.30

Compound: CC1(C)Cc2cc(CN3C(=O)N(c4ccc(SC(F)(F)F)cc4)C(=O)C3(C)C)cnc2N1 [Compound 14, 1-((2,2-dimethyl-2,3-dihydro-1H-pyrrolo[2,3-b]pyridin-5-yl)methyl)-5,5-dimethyl-3-(4-((trifluoromethyl)thio)phenyl)imidazolidine-2,4-dione]
- pIC50 [1]: < 5.00

Compound: CO[C@H](C)CNc1cc(CN2C(=O)N(c3ccc(S(=O)(=O)C(F)(F)F)cc3)C(=O)C2(C)C)ccn1 [Compound 338, (R)-1-((2-((2-methoxypropyl)amino)pyridin-4-yl)methyl)-5,5-dimethyl-3-(4-((trifluoromethyl)sulfonyl)phenyl) imidazolidine-2,4-dione]
- pIC50 [2]: ≥ 6.30

Compound: C[C@H](Nc1cc(CN2C(=O)N(c3ccc(S(=O)(=O)C(F)(F)F)cc3)C(=O)C2(C)C)ccn1)[C@@H]1CCCO1 [Compound 339, 5,5-dimethyl-1-((2-(((S)-1-((S)-tetrahydrofuran-2-yl)ethyl)amino)pyridin-4-yl)methyl)-3-(4-((trifluoromethyl)sulfonyl)phenyl) imidazolidine-2,4-dione]
- pIC50 [2]: 5.70 to 6.30

Compound: C[C@H](Nc1cc(CN2C(=O)N(c3ccc(S(=O)(=O)C(F)(F)F)cc3)C(=O)C2(C)C)ccn1)[C@H]1CCCO1 [Compound 340, 5,5-dimethyl-1-((2-(((S)-1-((R)-tetrahydrofuran-2-yl)ethyl)amino)pyridin-4-yl)methyl)-3-(4-((trifluoromethyl)sulfonyl)phenyl) imidazolidine-2,4-dione]
- pIC50 [2]: 5.00 to 5.70

Compound: C[C@@H](Nc1cc(CN2C(=O)N(c3ccc(S(=O)(=O)C(F)(F)F)cc3)C(=O)C2(C)C)ccn1)[C@@H]1CCCO1 [Compound 341, 5,5-dimethyl-1-((2-(((R)-1-((S)-tetrahydrofuran-2-yl)ethyl)amino)pyridin-4-yl)methyl)-3-(4-((trifluoromethyl)sulfonyl)phenyl) imidazolidine-2,4-dione]
- pIC50 [2]: 5.70 to 6.30

Other lines, results leading:

- pIC50 [2]: 5.00 to 5.70
Compound: C[C@@H](Nc1cc(CN2C(=O)N(c3ccc(S(=O)(=O)C(F)(F)F)cc3)C(=O)C2(C)C)ccn1)[C@H]1CCCO1 [Compound 342, 5,5-dimethyl-1-((2-(((R)-1-((R)-tetrahydrofuran-2-yl)ethyl)amino)pyridin-4-yl)methyl)-3-(4-((trifluoromethyl)sulfonyl)phenyl) imidazolidine-2,4-dione]

- pIC50 [2]: 5.00 to 5.70
Compound: CC1(C)C(=O)N(c2ccc(S(=O)(=O)C(F)(F)F)cc2)C(=O)N1Cc1ccnc(N[C@H]2CCOCC2(F)F)c1 [Compound 343, (S)-1-((2-((3,3-difluorotetrahydro-2H-pyran-4-yl)amino)pyridin-4-yl)methyl)-5,5-dimethyl-3-(4-((trifluoromethyl)sulfonyl)phenyl) imidazolidine-2,4-dione]

- pIC50 [2]: ≥ 6.30
Compound: Cn1cc(CNc2cc(CN3C(=O)N(c4ccc(S(=O)(=O)C(F)(F)F)cc4)C(=O)C3(C)C)ccn2)cn1 [Compound 344, 5,5-dimethyl-1-((2-(((1-methyl-1H-pyrazol-4-yl)methyl)amino)pyridin-4-yl)methyl)-3-(4-((trifluoromethyl)sulfonyl)phenyl) imidazolidine-2,4-dione]

- pIC50 [2]: 5.70 to 6.30
Compound: CC(C)Nc1cc(CN2C(=O)N(c3ccc(S(=O)(=O)C4CC4)cc3)C(=O)C2(C)C)ccn1 [Compound 353, 3-(4-(cyclopropylsulfonyl)phenyl)-1-((2-(isopropylamino)pyridin-4-yl)methyl)-5,5-dimethylimidazolidine-2,4-dione]

- pIC50 [2]: 5.70 to 6.30
Compound: CC(C)Nc1cc(CN2C(=O)N(c3ccc(S(=O)(=O)C(C)(C)C)cc3)C(=O)C2(C)C)ccn1 [Compound 354, 3-(4-(tert-butylsulfonyl)phenyl)-1-((2-(isopropylamino)pyridin-4-yl)methyl)-5,5-dimethylimidazolidine-2,4-dione]

- pIC50 [2]: ≥ 6.30
Compound: CC1(Nc2cc(CN3C(=O)N(c4ccc(S(=O)(=O)C(F)(F)F)cc4)C(=O)C3(C)C)ccn2)CC1 [Compound 355, 5,5-dimethyl-1-((2-((1-methylcyclopropyl)amino)pyridin-4-yl)methyl)-3-(4-((trifluoromethyl)sulfonyl)phenyl)imidazolidine-2,4-dione]

- pIC50 [2]: ≥ 6.30
Compound: CC1(C)C(=O)N(c2ccc(S(=O)(=O)C(F)(F)F)cc2)C(=O)N1Cc1ccnc(NC2CC2)c1 [Compound 356, 1-((2-(cyclopropylamino)pyridin-4-yl)methyl)-5,5-dimethyl-3-(4-((trifluoromethyl)sulfonyl)phenyl)imidazolidine-2,4-dione]

- pIC50 [2]: ≥ 6.30
Compound: CC1(C)C(=O)N(c2ccc(S(=O)(=O)C(F)(F)F)cc2)C(=O)N1Cc1ccnc(N[C@H]2C[C@H]2F)c1 [Compound 357, 1-((2-(((1S,2R)-2-fluorocyclopropyl)amino)pyridin-4-yl)methyl)-5,5-dimethyl-3-(4-((trifluoromethyl)sulfonyl)phenyl)imidazolidine-2,4-dione]

- pIC50 [2]: 5.70 to 6.30
Compound: CC(C)(C)c1ccc(N2C(=O)C(C)(C)N(Cc3ccnc4[nH]ccc34)C2=S)cc1 [Compound 407, 1-((1H-pyrrolo[2,3-b]pyridin-4-yl)methyl)-3-(4-(tert-butyl)phenyl)-5,5-dimethyl-2-thioxoimidazolidin-4-one]

- pIC50 [2]: ≥ 6.30
Compound: [2H]C([2H])([2H])Nc1cc(CN2C(=O)N(c3ccc(S(=O)(=O)C(F)(F)F)cc3)C(=O)C2(C)C)ccn1 [Compound 408]
